For data set [1], the system named is influenza A virus (IAV) A/Aichi/2/68 (H3N2). Kind of data set: microbe, parasite or virus in culture. The format is cell-based, influenza A virus in MDCK cells. Particulars: Influenza A virus.
A further data set is described as follows: in vitro. Particulars: dog.
Data set [2] has as its target PB2 cap binding domain (PB2-CBD) (residues 318-483) (Influenza A virus (A/duck/Shantou/4610/2003(H5N1)), UniProt Q2LG68). The arrangement: species or system avian influenza strain A/duck/Shantou/4610/2003(H5N1).
The mark [3] stands for this setting: H3N2, MDCK, 48 h, read-out: CPE IC50.
Where [4] appears, read: H3N2, read-out: % CPE reduction.

Read-outs that look alike come from different tables or passages of the source. A value given as a limit tells only on which side of the number the result lay.

As usually defined, the IC50 is the concentration needed to halve the response being measured. For the compound `O=C(NCCc1ccccc1)c1c[nH]c2ncc(C3CC3)nc12`, the IC50 in data set [1] (setting [3]) came to 66.9 µM. The CC50 in “in vitro” is above 100 µM. Taken in the same sequence, the figures for `COC(=O)c1cccc(CNC(=O)[C@H](NC(=O)c2c[nH]c3ncc(C4CC4)nc23)C2CC2)c1` were 4.8 µM and 63.9 µM. With `O=C(NCC1CC1)c1c[nH]c2ncc(-c3ccccc3Cl)nc12`, the “Fp (result in words)” value in data set [2] is “No displacement”. For `CS(=O)(=O)c1cccc(CNC(=O)c2c[nH]c3ncc(-c4ccccc4Cl)nc23)c1`, the “Fp (result in words)” value in data set [2] is given as “No displacement”. Further, in data set [1] (H3N2, read-out: CPE IC50), the IC50 was 22.5 µM. For `N#Cc1cccc(CNC(=O)[C@H](NC(=O)c2c[nH]c3ncc(C4CC4)nc23)C2CC2)c1`, in data set [1] (setting [3]), the IC50 amounted to 12.4 µM. Besides, the CC50 in “in vitro” was above 50 µM.

Turning to `O=C(N[C@@H](C(=O)NCc1ccc(Cl)cc1Cl)C1CC1)c1c[nH]c2ncc(C3CC3)nc12`, the IC50 in data set [1] (setting [3]) was 11.2 µM. The CC50 in the data set “in vitro” was above 12.5 µM. Consider `COc1ccc(C(C)(C)CNC(=O)c2c[nH]c3ncc(C4CC4)nc23)cc1OC`, for which, in data set [1] (setting [4]), the inhibition at 2.5 µM came to 15.8%. `CC(NC(=O)[C@H](NC(=O)c1c[nH]c2ncc(C3CC3)nc12)C1CC1)c1ccccc1` (stereo partly shown): the inhibition at 5 µM in data set [1] (setting [4]) worked out at 2.7%. In the case of `CC1(CNC(=O)c2c[nH]c3ncc(-c4ccccc4Cl)nc23)CCC(=O)N1` (stereo not shown), the IC50 in data set [1] (setting [3]) was above 100 µM.

With `O=C(N[C@@H](C(=O)NCC1CCOCC1)C1CCCCC1)c1c[nH]c2ncc(C3CC3)nc12`, in data set [1] (setting [4]), the inhibition at 5 µM was determined as 20.5%. As to `CC(C)C[C@@H](NC(=O)c1c[nH]c2ncc(C3CC3)nc12)C(=O)NCC(=O)NCc1ccccc1`, the IC50 in data set [1] (setting [3]) is above 100 µM. In the case of `O=C(N[C@@H](C(=O)N1CC[C@@H](O)C1)C1CCCCC1)c1c[nH]c2ncc(C3CC3)nc12`, the inhibition at 50 µM in data set [1] (setting [4]) is -14.8%. Same read-out and setting: next, `O=C(N[C@@H](C(=O)N[C@H]1CC[C@H](C(=O)O)CC1)C1CCCCC1)c1c[nH]c2ncc(C3CC3)nc12`: 14.8%. For `O=C(N[C@@H](C(=O)N1CC2(CCC2)C1)C1CC1)c1c[nH]c2ncc(C3CC3)nc12`, the IC50 in data set [1] (setting [3]) is above 100 µM.

On to `CC(C)C[C@@H](NC(=O)c1c[nH]c2ncc(C3CC3)nc12)C(=O)NCCC(=O)NCc1ccccn1`, for which the IC50 in data set [1] (setting [3]) is above 100 µM. On the same count and under the same terms, next, `O=C(N[C@@H](C(=O)NCCc1ccc(Cl)cc1)C1CC1)c1c[nH]c2ncc(C3CC3)nc12`: above 100 µM; `CC(C)C[C@@H](NC(=O)c1c[nH]c2ncc(C3CC3)nc12)C(=O)NCC(=O)NC1CCCC1`: above 100 µM; `O=C(N[C@@H](C(=O)NCCC(=O)N1CCOCC1)C1CC1)c1c[nH]c2ncc(C3CC3)nc12`: above 100 µM. Same read-out and setting: under `O=C(N[C@@H](C(=O)NCc1ccc(OC(F)(F)F)cc1)C1CC1)c1c[nH]c2ncc(C3CC3)nc12` stands 5.4 µM; under `O=C(N[C@@H](C(=O)NCc1ccc(Cl)cc1)C1CC1)c1c[nH]c2ncc(C3CC3)nc12`, 2.99 µM.

`CC(C)c1cnc2[nH]cc(C(=O)NCC(C)(C)C)c2n1`: the “Fp (result in words)” value in data set [2] is reported as “No displacement”. Besides, in data set [1] (setting [3]), the IC50 amounted to 52.2 µM. Take `O=C(N[C@@H](C(=O)N1CCC[C@H](C(=O)N2CCCC2)C1)C1CC1)c1c[nH]c2ncc(C3CC3)nc12`: the IC50 in data set [1] (setting [3]) was above 100 µM.

These data come from patent US20170100396A1 (priority 2015, published 2017).
